Measurements taken from the supplement of paper PMC10307832.

Tests used:
Experiment in all cases: relative viability (nuclei count vs DMSO), 5 days (fraction); higher = more cells survive
NCI-H1666 = system: NCI-H1666
Outline: (§1)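 Values are medians from duplicate plates. Each reflects relative viability, defined as the nuclei count of treated wells over that of vehicle wells. Lung cancer cell lines in 1536-well plates were pin-tool dosed one day after seeding with one drug alone or with a fixed anchor-drug dose plus five library-drug doses (not always all listed) in √10 steps, then fixed, stained and imaged at 4× after 5 days.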

COR-L 105 = system: COR-L 105
Outline: as §1

EKVX = system: EKVX
Outline: as §1

LCLC-97TM1 = system: LCLC-97TM1
Outline: as §1

NCI-H650 = system: NCI-H650
Outline: as §1

NCI-H2085 = system: NCI-H2085
Outline: as §1

NCI-H1437 = system: NCI-H1437
Outline: as §1

SW 1573 = system: SW 1573
Outline: as §1

NCI-H2342 = system: NCI-H2342
Outline: as §1

LOU-NH91 = system: LOU-NH91
Outline: as §1

NCI-H2087 = system: NCI-H2087
Outline: as §1

LU99A = system: LU99A
Outline: as §1

H3255 = system: H3255
Outline: as §1

NCI-H2170 = system: NCI-H2170
Outline: as §1

HCC-827 = system: HCC-827
Outline: as §1

HCC-44 = system: HCC-44
Outline: as §1

NCI-H647 = system: NCI-H647
Outline: as §1

201T = system: 201T
Outline: as §1

EPLC-272H = system: EPLC-272H
Outline: as §1

BEN = system: BEN
Outline: as §1

NCI-H1975 = system: NCI-H1975
Outline: as §1

PC-3 [JPC-3] = system: PC-3 [JPC-3]
Outline: as §1

CC(=O)O[C@@]12CO[C@@H]1C[C@H](O)[C@@]1(C)C(=O)[C@H](O)C3=C(C)[C@@H](OC(=O)[C@H](O)[C@@H](NC(=O)OC(C)(C)C)c4ccccc4)C[C@@](O)([C@@H](OC(=O)c4ccccc4)[C@H]21)C3(C)C [Docetaxel] + O=C(c1cc(Cc2n[nH]c(=O)c3ccccc23)ccc1F)N1CCN(C(=O)C2CC2)CC1 [Olaparib] (partner 8 µM)
relative viability (NCI-H1666; first compound 0.0002 µM): 0.786 | relative viability (NCI-H1666; first compound 0.000632 µM): 0.673 | relative viability (NCI-H1666; first compound 0.002 µM): 0.721 | relative viability (NCI-H1666; first compound 0.006325 µM): 0.703 | relative viability (NCI-H1666; first compound 0.02 µM): 0.573 | relative viability (COR-L 105; first compound 0.0002 µM): 0.8 | relative viability (COR-L 105; first compound 0.000632 µM): 0.591 | relative viability (COR-L 105; first compound 0.002 µM): 0.461 | relative viability (COR-L 105; first compound 0.006325 µM): 0.539 | relative viability (COR-L 105; first compound 0.02 µM): 0.331 | relative viability (EKVX; first compound 0.0002 µM): 0.839 | relative viability (EKVX; first compound 0.000632 µM): 0.557 | relative viability (EKVX; first compound 0.002 µM): 0.387 | relative viability (EKVX; first compound 0.006325 µM): 0.316 | relative viability (EKVX; first compound 0.02 µM): 0.167 | relative viability (LCLC-97TM1; first compound 0.0002 µM): 0.467 | relative viability (LCLC-97TM1; first compound 0.000632 µM): 0.272 | relative viability (LCLC-97TM1; first compound 0.002 µM): 0.107 | relative viability (LCLC-97TM1; first compound 0.006325 µM): 0.0877 | relative viability (LCLC-97TM1; first compound 0.02 µM): 0.0634 | relative viability (NCI-H650; first compound 0.0002 µM): 0.361 | relative viability (NCI-H650; first compound 0.000632 µM): 0.292 | relative viability (NCI-H650; first compound 0.002 µM): 0.192 | relative viability (NCI-H650; first compound 0.006325 µM): 0.189 | relative viability (NCI-H650; first compound 0.02 µM): 0.148 | relative viability (NCI-H2085; first compound 0.0002 µM): 0.725 | relative viability (NCI-H2085; first compound 0.000632 µM): 0.826 | relative viability (NCI-H2085; first compound 0.002 µM): 0.747 | relative viability (NCI-H2085; first compound 0.006325 µM): 0.431 | relative viability (NCI-H2085; first compound 0.02 µM): 0.298 | relative viability (NCI-H1437; first compound 0.0002 µM): 0.613 | relative viability (NCI-H1437; first compound 0.000632 µM): 0.442 | relative viability (NCI-H1437; first compound 0.002 µM): 0.384 | relative viability (NCI-H1437; first compound 0.006325 µM): 0.269 | relative viability (NCI-H1437; first compound 0.02 µM): 0.177 | relative viability (SW 1573; first compound 0.0002 µM): 0.304 | relative viability (SW 1573; first compound 0.000632 µM): 0.223 | relative viability (SW 1573; first compound 0.002 µM): 0.199 | relative viability (SW 1573; first compound 0.006325 µM): 0.162 | relative viability (SW 1573; first compound 0.02 µM): 0.119 | relative viability (NCI-H2342; first compound 0.0002 µM): 0.525 | relative viability (NCI-H2342; first compound 0.000632 µM): 0.456 | relative viability (NCI-H2342; first compound 0.002 µM): 0.312 | relative viability (NCI-H2342; first compound 0.006325 µM): 0.348 | relative viability (NCI-H2342; first compound 0.02 µM): 0.301 | relative viability (LOU-NH91; first compound 0.0002 µM): 0.915 | relative viability (LOU-NH91; first compound 0.000632 µM): 0.839 | relative viability (LOU-NH91; first compound 0.002 µM): 0.567 | relative viability (LOU-NH91; first compound 0.006325 µM): 0.396 | relative viability (LOU-NH91; first compound 0.02 µM): 0.315 | relative viability (NCI-H2087; first compound 0.0002 µM): 0.586 | relative viability (NCI-H2087; first compound 0.000632 µM): 0.3 | relative viability (NCI-H2087; first compound 0.002 µM): 0.243 | relative viability (NCI-H2087; first compound 0.006325 µM): 0.125 | relative viability (NCI-H2087; first compound 0.02 µM): 0.0944 | relative viability (LU99A; first compound 0.0002 µM): 0.259 | relative viability (LU99A; first compound 0.000632 µM): 0.201 | relative viability (LU99A; first compound 0.002 µM): 0.209 | relative viability (LU99A; first compound 0.006325 µM): 0.23 | relative viability (LU99A; first compound 0.02 µM): 0.163 | relative viability (H3255; first compound 0.0002 µM): 0.59 | relative viability (H3255; first compound 0.000632 µM): 0.555 | relative viability (H3255; first compound 0.002 µM): 0.439 | relative viability (H3255; first compound 0.006325 µM): 0.336 | relative viability (H3255; first compound 0.02 µM): 0.33 | relative viability (NCI-H2170; first compound 0.0002 µM): 0.611 | relative viability (NCI-H2170; first compound 0.000632 µM): 0.475 | relative viability (NCI-H2170; first compound 0.002 µM): 0.342 | relative viability (NCI-H2170; first compound 0.006325 µM): 0.136 | relative viability (NCI-H2170; first compound 0.02 µM): 0.126 | relative viability (HCC-827; first compound 0.0002 µM): 0.626 | relative viability (HCC-827; first compound 0.000632 µM): 0.662 | relative viability (HCC-827; first compound 0.002 µM): 0.329 | relative viability (HCC-827; first compound 0.006325 µM): 0.287 | relative viability (HCC-827; first compound 0.02 µM): 0.23 | relative viability (HCC-44; first compound 0.0002 µM): 0.978 | relative viability (HCC-44; first compound 0.000632 µM): 0.954 | relative viability (HCC-44; first compound 0.002 µM): 0.908 | relative viability (HCC-44; first compound 0.006325 µM): 0.682 | relative viability (HCC-44; first compound 0.02 µM): 0.616 | relative viability (NCI-H647; first compound 0.0002 µM): 0.449 | relative viability (NCI-H647; first compound 0.000632 µM): 0.132 | relative viability (NCI-H647; first compound 0.002 µM): 0.0799 | relative viability (NCI-H647; first compound 0.006325 µM): 0.0764 | relative viability (NCI-H647; first compound 0.02 µM): 0.0432 | relative viability (201T; first compound 0.0002 µM): 0.821 | relative viability (201T; first compound 0.000632 µM): 0.774 | relative viability (201T; first compound 0.002 µM): 0.637 | relative viability (201T; first compound 0.006325 µM): 0.432 | relative viability (201T; first compound 0.02 µM): 0.267 | relative viability (EPLC-272H; first compound 0.0002 µM): 0.527 | relative viability (EPLC-272H; first compound 0.000632 µM): 0.339 | relative viability (EPLC-272H; first compound 0.002 µM): 0.0991 | relative viability (EPLC-272H; first compound 0.006325 µM): 0.0687 | relative viability (EPLC-272H; first compound 0.02 µM): 0.0452 | relative viability (BEN; first compound 0.0002 µM): 1.11 | relative viability (BEN; first compound 0.000632 µM): 1.06 | relative viability (BEN; first compound 0.002 µM): 0.514 | relative viability (BEN; first compound 0.006325 µM): 0.357 | relative viability (BEN; first compound 0.02 µM): 0.275 | relative viability (NCI-H1975; first compound 0.0002 µM): 0.748 | relative viability (NCI-H1975; first compound 0.000632 µM): 0.448 | relative viability (NCI-H1975; first compound 0.002 µM): 0.239 | relative viability (NCI-H1975; first compound 0.006325 µM): 0.187 | relative viability (NCI-H1975; first compound 0.02 µM): 0.147 | relative viability (PC-3 [JPC-3]; first compound 0.0002 µM): 1.13 | relative viability (PC-3 [JPC-3]; first compound 0.000632 µM): 1.03 | relative viability (PC-3 [JPC-3]; first compound 0.002 µM): 0.585 | relative viability (PC-3 [JPC-3]; first compound 0.006325 µM): 0.388 | relative viability (PC-3 [JPC-3]; first compound 0.02 µM): 0.234
